Results on twelve molecules are retold here after PMC8983078 (Drug Discovery Today, 2022).

Each structure is given as a SMILES string. Counter-ions that a name gives are not always drawn. Like-named read-outs stand apart in the source and are kept apart here.

In series [1] the target is T1, hERG channel (Homo sapiens, UniProt Q12809).
The next series has as its system phospholipidosis (PLD). Conditions: read-out: PLD EC50; NPC qHTS in-house database; cited from earlier work.
The test system of another series is autophagy. Conditions: in words; screening data; cited from earlier work.
In series [2] the target is T1, hERG channel. Conditions: cited from earlier work.
The subject of another series is SARS-CoV-2. Conditions: cited from earlier work; for SARS-CoV-2 CPE EC50: Vero E6 cells infected for 72 h, NPC qHTS in-house database. For orientation: Quantitative high-throughput screening tests each substance at several concentrations.
The next series deals with SARS-CoV-1. To be noted: cited from earlier work.
In series [3] the test system is Middle East respiratory syndrome (MERS)-CoV. Conditions: cited from earlier work.
The conditions of series [4]: cited from earlier work.
Another series relates to COVID-19. To be noted: patients hospitalized with COVID-19, observational; cited from earlier work.
[5] abbreviates: tier stated per drug in the text, based on hERG curve rank.

T1 sequence (Q12809 whole entry): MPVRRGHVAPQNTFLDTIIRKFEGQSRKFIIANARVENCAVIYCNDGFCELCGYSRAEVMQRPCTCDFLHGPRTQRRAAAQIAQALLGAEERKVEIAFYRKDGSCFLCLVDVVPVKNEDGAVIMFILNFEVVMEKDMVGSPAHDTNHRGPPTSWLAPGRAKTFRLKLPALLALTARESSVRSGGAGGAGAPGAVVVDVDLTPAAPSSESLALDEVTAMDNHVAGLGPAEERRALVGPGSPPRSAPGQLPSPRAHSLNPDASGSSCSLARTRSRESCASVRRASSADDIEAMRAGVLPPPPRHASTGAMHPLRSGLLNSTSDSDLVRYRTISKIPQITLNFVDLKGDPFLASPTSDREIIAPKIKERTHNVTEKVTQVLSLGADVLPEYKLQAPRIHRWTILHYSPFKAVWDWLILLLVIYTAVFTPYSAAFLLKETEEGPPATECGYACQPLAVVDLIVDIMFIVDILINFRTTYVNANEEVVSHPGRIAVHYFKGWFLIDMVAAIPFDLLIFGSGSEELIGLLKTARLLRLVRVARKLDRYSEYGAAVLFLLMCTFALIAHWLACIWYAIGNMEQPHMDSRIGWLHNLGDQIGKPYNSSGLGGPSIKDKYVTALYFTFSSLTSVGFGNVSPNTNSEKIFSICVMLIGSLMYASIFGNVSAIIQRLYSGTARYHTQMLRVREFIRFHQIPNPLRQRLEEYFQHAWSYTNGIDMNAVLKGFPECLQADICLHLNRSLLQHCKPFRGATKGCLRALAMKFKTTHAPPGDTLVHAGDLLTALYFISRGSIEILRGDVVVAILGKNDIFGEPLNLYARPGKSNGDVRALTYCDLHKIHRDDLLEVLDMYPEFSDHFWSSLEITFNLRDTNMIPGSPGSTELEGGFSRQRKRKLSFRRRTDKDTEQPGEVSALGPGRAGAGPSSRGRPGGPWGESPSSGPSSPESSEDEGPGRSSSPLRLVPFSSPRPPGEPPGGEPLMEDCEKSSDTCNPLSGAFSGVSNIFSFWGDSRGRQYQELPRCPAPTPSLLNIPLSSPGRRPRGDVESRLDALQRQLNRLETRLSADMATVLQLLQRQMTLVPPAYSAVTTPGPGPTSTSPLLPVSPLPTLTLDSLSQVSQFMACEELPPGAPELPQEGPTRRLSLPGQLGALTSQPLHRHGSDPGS

Take `O=C(CCCN1CCC(O)(c2ccc(Cl)cc2)CC1)c1ccc(F)cc1` [haloperidol]: on hERG channel [1], the hERG liability entry is “high (key: low (curve rank < 1.0); medium (curve rank between 1.0 and 4.0); high (curve rank > 4.0))”.
As to `O=C(Nc1ccc([N+](=O)[O-])cc1Cl)c1cc(Cl)ccc1O` [Niclosamide], in the series on phospholipidosis (PLD), the EC50 (in general, the concentration giving half of the maximal effect) is 1 µM. For the same molecule, the “activity in the autophagy assay” value in the series on autophagy is reported as “moderate activity”. In addition, the “hERG IC50” value at hERG channel [2] (NPC qHTS in-house database) is recorded as “Inactive”.
In the case of `CCN(CCO)CCCC(C)Nc1ccnc2cc(Cl)ccc12` (stereo not drawn) [Hydroxychloroquine sulfate], in the series on SARS-CoV-2, the “SARS-CoV-2 CPE EC50” value is on record as “Inactive”. Further, the “hERG IC50” value at hERG channel [2] (NPC qHTS in-house database) was “Inactive”.
Consider `CN(C)CCCN1c2ccccc2Sc2ccc(Cl)cc21` [Chlorpromazine], for which the hERG liability result at hERG channel [1] (setting [5]) is on record as “high (high (curve rank > 4.0))”. Further, the EC50 in the series on phospholipidosis (PLD) is 10 µM. In addition, in the series on SARS-CoV-1, the “viral replication of SARS-CoV-1” value is on record as “inhibit in vitro viral replication”. Further, in [3], the “viral replication of MERS-CoV” value is recorded as “inhibit in vitro viral replication”. For the same molecule, the TdP risks result in [4] (in vivo) is on record as “known TdP risks”.
Take `CCN(CC)CCCC(C)Nc1ccnc2cc(Cl)ccc12` (stereo not drawn) [Chloroquine]: the EC50 in the series on phospholipidosis (PLD) was 11 µM.
Take `COc1ccc(CCN2CCC(Nc3nc4ccccc4n3Cc3ccc(F)cc3)CC2)cc1` [Astemizole]: the TdP risks entry in [4] is recorded as “known TdP risks”. Also, the arrhythmias result in series [4] (in vivo) is recorded as “fatal arrythmias”.
`CC(=O)Oc1ccccc1C(=O)Nc1ncc([N+](=O)[O-])s1` [Nitazoxanide]: in the series on SARS-CoV-2 (in words, screening data), the “activity in the CPE assay” value is recorded as “moderate activity”. In addition, the “activity in the autophagy assay” value in the series on autophagy is listed as “no activity”. Further, the “hERG IC50” value at hERG channel [2] (NPC qHTS in-house database) is given as “Inactive”.
Take `CC[C@H]1OC(=O)[C@H](C)[C@@H](O[C@H]2C[C@@](C)(OC)[C@@H](O)[C@H](C)O2)[C@H](C)[C@@H](O[C@@H]2O[C@H](C)C[C@H](N(C)C)[C@H]2O)[C@](C)(O)C[C@@H](C)CN(C)[C@H](C)[C@@H](O)[C@]1(C)O` [Azithromycin]: the “hERG IC50” value on hERG channel [2] (NPC qHTS in-house database) is on record as “Inactive”. Also, the hERG inhibition entry on hERG channel [2] (in words, screening data) was “no hERG inhibition”.
On to `CN1CCCCC1CCN1c2ccccc2Sc2ccc([S+](C)[O-])cc21` (stereo not drawn) [mesoridazine], for which the hERG liability entry at hERG channel [1] was “high (key: low (curve rank < 1.0); medium (curve rank between 1.0 and 4.0); high (curve rank > 4.0))”. In series [4] (in vivo), the TdP risks result is given as “known TdP risks”.
Take `NC(N)=Nc1nc(CSCCC(N)=NS(N)(=O)=O)cs1` [Famotidine]: in the series on SARS-CoV-2, the “SARS-CoV-2 CPE EC50” value is “Inactive”. Moreover, the clinical outcomes with COVID-19 is “improved clinical outcomes”.
On to `CC[C@@H](C)[C@H]1O[C@]2(CC[C@@H]1C)C[C@@H]1C[C@@H](C/C=C(\C)[C@@H](O[C@H]3C[C@H](OC)[C@@H](O[C@H]4C[C@H](OC)[C@@H](O)[C@H](C)O4)[C@H](C)O3)[C@@H](C)/C=C/C=C3\CO[C@@H]4[C@H](O)C(C)=C[C@@H](C(=O)O1)[C@]34O)O2` [Ivermectin], for which the hERG liability result on hERG channel [1] (setting [5]) is recorded as “moderate”. Besides, in the series with phospholipidosis (PLD), the EC50 is 17 µM. Further, the IC50 – broadly, the concentration at which inhibition is half-maximal – on hERG channel [2] (read-out: hERG IC50, NPC qHTS in-house database) was 9.7 µM.
As to `NC(=O)c1nc(F)c[nH]c1=O` [Favipiravir], the “SARS-CoV-2 CPE EC50” value in the series on SARS-CoV-2 is given as “Inactive”.
